How the values were obtained:
Format in all cases: cell-based, Porcine
Conditions in all cases: 24 hr, all three concentrations (1 μM; 5 μM; 20 μM)
[1] = tested on: SIRT1; experiment: SIRT1 immunofluorescence in iPEC-1 cells treated with ursolic acid
Experimental: (§1) iPEC-1 cells were grown as a monolayer in DMEM with 10% fetal bovine serum (FBS) and the necessary supplements at 37° C. in a humidified incubator with 5% CO2. iPEC1 cells were seeded on 35 mm dishes. Experiments were initiated 48 hr after plating. Cells were treated with saline or with ursolic acid at three separate dosages (1 μM; 5 μM; or 20 μM) in the medium for 24 hr at 37° C. The cells were then washed with ice-cold PBS and fixed with 4% paraformaldehyde for 10 min at room temperature followed by permeabilization with 0.3% Triton X-100 for 10 min. After being washed with PBS three times, cells were incubated for 1 hr in PBS containing 10% normal goat serum blocking solution. The cells were subjected to immunofluorescence staining with the target specific antibodies (SIRT1, CLOCK and Bmal1) overnight at 4° C. The cells were then washed with cold PBS three times for 3 min each, and incubated with Alexa-labeled secondary antibodies (Invitrogen) at room temperature for 1 h. The cells were examined by fluorescence microscopy (a Nikon TE2000-S microscope, Nikon, Tokyo, Japan).

[2] = tested on: CLOCK; experiment: CLOCK immunofluorescence in iPEC-1 cells treated with ursolic acid
Experimental: as §1

[3] = tested on: Bmal1; experiment: Bmal1 immunofluorescence in iPEC-1 cells treated with ursolic acid
Experimental: as §1

## C[C@H]1[C@H](C)CC[C@]2(C(=O)O)CC[C@]3(C)C(=CC[C@@H]4[C@@]5(C)CC[C@H](O)C(C)(C)[C@@H]5CC[C@]43C)[C@H]12 [ursolic acid]
[1]
  intensity of immunofluorescence of SIRT1 compared with controls: significantly induced the intensity of immunofluorescence
[2]
  intensity of immunofluorescence of CLOCK compared with controls: significantly induced the intensity of immunofluorescence
[3]
  intensity of immunofluorescence of Bmal1 compared with controls: significantly induced the intensity of immunofluorescence

Reference: patent publication US20160256511A1, “COMPOSITIONS AND METHODS FOR THE TREATMENT OR PROPHYLAXIS OF CIRCADIAN PROTEIN RELATED CONDITIONS” (IN INGREDIENTS, INC., priority 2013, published 2016)
